30 compounds from patent US5416118A, “Bicyclic amides as inhibitors of acyl-coenzyme A: cholesterol acyl transferase” (Schering Corporation, priority 1993, dated 1995) can be followed below.

Molecules are shown by their SMILES.

The subject of assay [1] is ACAT. The assay is described as follows: ACAT Assay (in vitro). To be noted: dose = 10 μM; rat liver microsomes. Type of assay: biochemical. As to the method:
This assay measures the activity of ACAT by measuring the ACAT-mediated transfer of tritiated oleic acid from acyl-CoA to cholesterol to give labelled cholesterol oleate. Rat liver microsomes are used as the source of ACAT. Assays are performed in round bottom microtiterplates using a total incubation volume of 50 μL. Each incubation well receives 10 μL assay buffer (0.5M KHPO4, 10 μM dithiothreitol, pH 7.4), 7.5 μL of 40 mg/mL BSA (Bovine Serum Albumin) and 12.5 μg of microsomal protein. The test compound (in sufficient amount to bring the final concentration to from 0.1 to 25 μM), reference compound, or vehicle control is added and the final volume brought to 47 μL. The microtiterplate is then floated on the surface of a 37° C. water bath for fifteen minutes. Incubations are started by the addition of 3 μL ^3 H-acyl CoA (1 μCi/well, final concentration of 10 μM acyl CoA). The plate is then returned to the water bath for 15 minutes. The incubations are then terminated by application of 15 μL from each incubation to individual lanes on a thin layer plate (Silica Gel GF 20×20 cm). Standards are applied to several lanes so that the cholesterol ester band can be identified. After drying, the plates are eluted with 90:10:1 petroleum ether:ether:HOAc. The standards are visualized via iodine vapor, and the regions corresponding to cholesterol ester are scraped into 7 mL scintillation vials. 4 mL of scintillant are added to each vial, and the radioactivity quantified. Background count is determined by the boiled controls. Full activity is determined by activity in the presence of vehicle. The percent inhibition is calculated by subtracting the background from both control and test samples, and the test value is calculated as a percentage of the control. For IC50 determinations, the inhibition is plotted against drug doses on a log scale and the concentration at which 50% inhibition is obtained is determined.
(§1) Using the assay methods described above, the compounds of Examples 1-9 were tested for in vitro ACAT inhibitory activity and for the ability to lower the level of cholesteryl esters in vivo.
In general terms: Microsomes from liver hold many membrane-bound enzymes, among them those of drug oxidation.

Assay [2] deals with cholesteryl esters. The assay is described as follows: In Vivo Assay of Hypolipidemic Agents Using the Hyperlipidemic Hamster. To be noted: Mesocricetus auratus, po, 168 h, oral gavage once daily, 7 days, versus control, read-out: % Reduction in cholesteryl esters; for change in vivo at 100 mg/kg: 100 mpk; for change in vivo at 25 mg/kg: 25 mpk; for change in vivo at 50 mg/kg: 50 mpk; for change in vivo at 10 mg/kg: 10 mpk. How it is done:
In Vivo Assay of Hypolipidemic Agents Using the Hyperlipidemic Hamster
Hamsters are separated into groups of six and given a control cholesterol diet (Pudna Chow #5001 containing 0.5% cholesterol) for seven days. Diet consumption is monitored to determine dietary cholesterol exposure in the face of test compounds. The animals are dosed with the test compound once daily beginning with the initiation of diet. Dosing is by oral gavage of 0.2 mL of corn oil alone (control group) or solution (or suspension) of test compound in corn oil. All animals moribund or in poor physical condition are euthanized. After seven days, the animals are anesthetized by […] of ketamine and sacrificed by decapitation. Blood is collected into vacutainer tubes containing EDTA for plasma lipid analysis and the liver excised for tissue lipid analysis. Data is reported as percent reduction of lipid versus control.
as §1

For `CCCCCCCC/C=C\CCCCCCCC(=O)N[C@H]1c2ccccc2CC[C@H]1c1ccc(OC)cc1` (relative stereo) [Example 2G], the “ACAT % Inhibition” value in assay [1] came to 73%. The change in vivo at 100 mg/kg in assay [2] was determined as 0%.

On to `CCCCCCCC/C=C\CCCCCCCC(=O)N[C@H]1c2ccccc2CC[C@@H]1c1ccc(OC)cc1` (relative stereo) [Example 2H], for which the “ACAT % Inhibition” value in assay [1] is given as 81%. In addition, the change in vivo at 100 mg/kg in assay [2] amounted to 0%.

Turning to `COc1ccc2c(c1)C[C@H](c1ccccc1)[C@H]2NC(=O)C(c1ccccc1)c1ccccc1` (relative stereo) [Example 2K], the “ACAT % Inhibition” value in assay [1] was determined as 90%. Besides, in assay [2], the change in vivo at 25 mg/kg was 17%.

Take `CCCCCCCC/C=C\CCCCCCCC(=O)N[C@H]1c2ccccc2CC[C@@H]1c1ccccc1` (relative stereo) [Example 2M]: in assay [1], the “ACAT % Inhibition” value is reported as 99%. The change in vivo at 100 mg/kg in assay [2] was 0%.

Take `CCCCCCCC/C=C\CCCCCCCC(=O)N[C@H]1c2ccccc2OC[C@H]1c1ccccc1` (relative stereo) [Example 2N]: the “ACAT % Inhibition” value in assay [1] is recorded as 85%. Further, the change in vivo at 100 mg/kg in assay [2] came out at 0%.

With `COc1ccc2c(c1)C[C@@H](c1ccccc1)[C@H]2NC(=O)C(c1ccccc1)c1ccccc1` (relative stereo) [Example 2R], in assay [1], the “ACAT % Inhibition” value is given as 75%. In addition, the change in vivo at 50 mg/kg in assay [2] was found to be 0%.

As for `O=C(N[C@H]1c2ccccc2C[C@H]1c1ccccc1)C(c1ccccc1)c1ccccc1` (relative stereo) [Example 2S], the “ACAT % Inhibition” value in assay [1] was found to be 83%. For the same compound, the change in vivo at 50 mg/kg in assay [2] was 16%.

As to `O=C(N[C@H]1c2ccccc2C[C@H]1c1ccc(O)cc1)C(c1ccccc1)c1ccccc1` (relative stereo) [Example 3, cis-N-[2-(4'-hydroxyphenyl)indanyl]-αphenylbenzeneacetamide], the “ACAT % Inhibition” value in assay [1] is listed as 99%. In assay [2], the change in vivo at 10 mg/kg was -71%, the change in vivo at 25 mg/kg is -87.5% and the change in vivo at 50 mg/kg is -89%.

In the case of `O=C(N[C@@H]1c2ccccc2C[C@@H]1c1cccc(O)c1)C(c1ccccc1)c1ccccc1` (relative stereo) [Example 3B], in assay [1], the “ACAT % Inhibition” value was determined as 97%. The change in vivo at 50 mg/kg in assay [2] is 0%.

Consider `O=C(N[C@@H]1c2ccccc2CC[C@@H]1c1cccc(O)c1)C(c1ccccc1)c1ccccc1` (relative stereo) [Example 3C], for which the “ACAT % Inhibition” value in assay [1] is given as 77%. The change in vivo at 50 mg/kg in assay [2] is 0%.

For `O=C(N[C@@H]1c2ccccc2CC[C@H]1c1cccc(O)c1)C(c1ccccc1)c1ccccc1` (relative stereo) [Example 3D], the “ACAT % Inhibition” value in assay [1] is reported as 98%. The change in vivo at 50 mg/kg in assay [2] came out at 0%.

On to `O=C(N[C@@H]1c2ccccc2C[C@H]1c1ccc(O)cc1)C(c1ccccc1)c1ccccc1` (relative stereo) [Example 3E], for which the “ACAT % Inhibition” value in assay [1] came out at 99%. Moreover, the change in vivo at 50 mg/kg in assay [2] is -52%.

Take `O=C(N[C@@H]1c2ccccc2CC[C@@H]1c1ccc(O)cc1)C(c1ccccc1)c1ccccc1` (relative stereo) [Example 3F]: in assay [1], the “ACAT % Inhibition” value is 91%. Besides, the change in vivo at 50 mg/kg in assay [2] is -16%.

Take `O=C(N[C@@H]1c2ccccc2CC[C@H]1c1ccc(O)cc1)C(c1ccccc1)c1ccccc1` (relative stereo) [Example 3G]: the “ACAT % Inhibition” value in assay [1] is on record as 93%. In assay [2], the change in vivo at 25 mg/kg is -43% and the change in vivo at 50 mg/kg was -57%.

On to `CCCCCCCCCC(C)(C)C(=O)N[C@@H]1c2ccccc2CC[C@H]1c1ccc(O)cc1` (relative stereo) [Example 3H], for which the “ACAT % Inhibition” value in assay [1] was 86%. For the same compound, the change in vivo at 50 mg/kg in assay [2] amounted to 0%.

For `O=C(N[C@@H]1c2ccccc2CC[C@H]1c1ccc(O)cc1)N(c1ccccc1)c1ccccc1` (relative stereo) [Example 3I], in assay [1], the “ACAT % Inhibition” value was determined as 99%. Also, the change in vivo at 50 mg/kg in assay [2] was -16%.

For `O=C(N[C@@H]1c2ccc(O)cc2C[C@@H]1c1ccccc1)C(c1ccccc1)c1ccccc1` (relative stereo) [Example 3K], the “ACAT % Inhibition” value in assay [1] was 54%. Further, the change in vivo at 50 mg/kg in assay [2] was determined as 0%.

On to `O=C(N[C@@H]1c2ccc(O)cc2CC[C@@H]1c1ccccc1)C(c1ccccc1)c1ccccc1` (relative stereo) [Example 3M], for which the “ACAT % Inhibition” value in assay [1] is on record as 87%. The change in vivo at 50 mg/kg in assay [2] is -45%.

For `O=C(N[C@@H]1c2ccc(O)cc2CC[C@H]1c1ccccc1)C(c1ccccc1)c1ccccc1` (relative stereo) [Example 3N], in assay [1], the “ACAT % Inhibition” value is recorded as 92%. Moreover, the change in vivo at 50 mg/kg in assay [2] turned out to be 0%.

For the compound `O=C(N[C@@H]1c2cc(O)ccc2CC[C@@H]1c1ccccc1)C(c1ccccc1)c1ccccc1` (relative stereo) [Example 3P], in assay [1], the “ACAT % Inhibition” value was 75%. Further, the change in vivo at 50 mg/kg in assay [2] amounted to 0%.

On to `O=C(N[C@@H]1c2cc(O)ccc2CC[C@H]1c1ccccc1)C(c1ccccc1)c1ccccc1` (relative stereo) [Example 3Q], for which the “ACAT % Inhibition” value in assay [1] came out at 94%. The change in vivo at 50 mg/kg in assay [2] was -78%.

On to `O=C(N[C@@H]1c2cc(O)ccc2C[C@@H]1c1ccccc1)C(c1ccccc1)c1ccccc1` (relative stereo) [Example 3W], for which, in assay [1], the “ACAT % Inhibition” value is recorded as 84%. In assay [2], the change in vivo at 50 mg/kg was 14%.

Consider `CCCCCCCC/C=C\CCCCCCCC(=O)N[C@@H]1c2ccccc2CC[C@H]1c1ccc(O)cc1` (relative stereo) [Example 4, trans-N-[2-(4'-hydroxyphenyl)-1,2,3,4-tetrahydronaphth-1-yl]oleamide], for which, in assay [1], the “ACAT % Inhibition” value came out at 94%. In addition, the change in vivo at 50 mg/kg in assay [2] is 0%.

For `CCCCCCCC/C=C\CCCCCCCC(=O)N[C@@H]1c2ccccc2CC[C@@H]1c1ccc(O)cc1` (relative stereo) [Example 4A], in assay [1], the “ACAT % Inhibition” value was 81%. Besides, in assay [2], the change in vivo at 50 mg/kg was found to be 0%.

For the compound `Nc1cccc([C@H]2Cc3ccccc3[C@H]2NC(=O)C(c2ccccc2)c2ccccc2)c1` (relative stereo) [Example 5A, cis-N-[2-(3'-aminophenyl)indanyl]-α-phenylbenzeneacetamide], the “ACAT % Inhibition” value in assay [1] is reported as 95%. The change in vivo at 10 mg/kg in assay [2] came to 0%.

With `COc1ccc([C@H]2CCc3ccccc3[C@@H]2NC(=O)N(c2ccccc2)c2ccccc2)cc1` (relative stereo) [Example 6, trans-N'-[2-(4'-methoxyphenyl)-1,2,3,4-tetrahydronaphthalen-1-yl]-N,N-diphenylurea], the “ACAT % Inhibition” value in assay [1] turned out to be 97%. Moreover, the change in vivo at 50 mg/kg in assay [2] is -16%.

In the case of `O=C(N[C@@H]1c2ccccc2C[C@@H]1c1ccc(O)c(Cl)c1)C(c1ccccc1)c1ccccc1` (relative stereo) [Example 8, cis-N-[2-(3'-chloro-4'-hydroxyphenyl)indanyl]-α-phenylbenzeneacetamid], in assay [1], the “ACAT % Inhibition” value is 99%. Besides, the change in vivo at 50 mg/kg in assay [2] was -40%.

Regarding `O=C(N[C@@H]1c2ccccc2C[C@@H]1c1cc(Cl)c(O)c(Cl)c1)C(c1ccccc1)c1ccccc1` (relative stereo) [Example 8A, cis-N-[2-(3',5'-dichloro-4'-hydroxyphenyl)indanyl]-α-phenylbenzeneacetamide], in assay [1], the “ACAT % Inhibition” value is 99%. The change in vivo at 50 mg/kg in assay [2] is -14%.

With `O=C(N[C@@H]1c2ccccc2C[C@@H]1c1ccc(O)c(Br)c1)C(c1ccccc1)c1ccccc1` (single isomer, unassigned) [Example 7, (+)-cis-N-[2-(3'-bromo-4'-hydroxyphenyl]indanyl]-α-phenylbenzeneacetamide], the “ACAT % Inhibition” value in assay [1] was determined as 100%. The change in vivo at 50 mg/kg in assay [2] is -40%.

Consider `Cc1cc([C@H]2Cc3ccccc3[C@H]2NC(=O)C(c2ccccc2)c2ccccc2)ccc1O` (single isomer, unassigned) [Example 9, (+)-cis-N-[2-(4'-hydroxy-3'-methylphenyl)indanyl]-α-phenylbenzeneacetamide], for which, in assay [1], the “ACAT % Inhibition” value was 98%. Further, the change in vivo at 50 mg/kg in assay [2] was -66%.
